We go through seven molecules from patent publication US8168806B2, “Boron chelate complexes” (Chemetall GmbH, priority 2001, dated 2012).

For data set [1] the following is noted: room temperature; for Cond. (conductivity): at the concentration (mmole/g) printed in the cell to the left.
For data set [2] the following is noted: thermogravimetry.
The conditions of data set [3]: room temperature.
Data set [4] is described as follows: Qualitative solubility of the product of Example 3 in organic solvents. It is filed as physicochemical. Particulars: in propylene carbonate, γ-butyrolactone, 1,2-dimethyoxyethane, acetone and dimethylformamide.
For data set [5] the following is noted: 0.5 molar solution in γ-butyrolactone, nickel electrodes, FIG. 1.
For data set [6] the following is noted: 5% solution in water, stirring for 2 hours, room temperature.
For data set [7] the following is noted: in propylene carbonate; Xu and Angell 2001; cited from earlier work.
For data set [8] the following is noted: prior art statement; cited from earlier work.
Where [9] appears, read: in 1,2-DME (1,2-dimethoxyethane).

Like-named read-outs stand apart in the source and are kept apart here.

Regarding `O=C1O[B-]2(OC1=O)OC(=O)c1ccccc1O2.[Li+]` [LOSB, Lithium-(oxalato,salicylato)borate], the “Cond. (conductivity)” value is recorded as 4.17 mS/cm in data set [1] (in 1,2-DME) and 3.17 mS/cm in data set [1] (in THF). Besides, the “TGA: decomposition starts at” value in data set [2] was “ca. 210 °C”. The Solubility in data set [3] (setting [9]) stood at 0.43 mol/kg; in data set [3] (in PC (propylene carbonate)), 1.50 mol/kg; in data set [3] (in THF (tetrahydrofuran)), 1.21 mol/kg; in data set [3] (in acetone), 0.51 mol/kg; in data set [3] (in γ-BL (γ-butyrolactone)), 0.98 mol/kg.

Turning to `O=C1O[B-]2(OC1=O)OC(=O)c1ccccc1O2.[H+]` [HSOB, hydrogen-(salicylato, oxalato)borate], the Solubility in words entry in data set [4] is given as “extremely soluble”.

Take `CC1O[B-]2(OC1=O)OC(=O)C(C)O2.[Li+]` (stereo not shown) [LLB, Lithium-bis(lactato)borate]: the “Concn. column: solubility in words” value in data set [1] (in 1,2-DME) and in data set [1] (in THF) was “insoluble” each time. Besides, the “Cond. (conductivity)” value in data set [1] (in 1,2-DME) came to 0 mS/cm; in data set [1] (in THF) it was 0 mS/cm; in data set [1] (in γ-BL), 0.01 mS/cm. Besides, the Solubility in data set [3] (setting [9]) was less than 0.01 mol/kg; in data set [3] (in PC (propylene carbonate)), less than 0.01 mol/kg; in data set [3] (in THF (tetrahydrofuran)), less than 0.01 mol/kg; in data set [3] (in acetone) it was less than 0.01 mol/kg; in data set [3] (in γ-BL (γ-butyrolactone)), 0.02 mol/kg.

In the case of `CC1O[B-]2(OC(=O)C(=O)O2)OC1=O.[Li+]` (stereo not shown) [LLOB, Lithium-(lactato,oxalato)borate], the “Cond. (conductivity)” value in data set [1] (in 1,2-DME) is recorded as 6.52 mS/cm; in data set [1] (in THF) it was 2.91 mS/cm; in data set [1] (in γ-BL), 2.61 mS/cm. Also, the “TGA: decomposition starts at” value in data set [2] was “ca. 270 °C”. Also, the Solubility was found to be 0.93 mol/kg in data set [3] (setting [9]); 0.17 mol/kg in data set [3] (in PC (propylene carbonate)); 1.59 mol/kg in data set [3] (in THF (tetrahydrofuran)); 1.38 mol/kg in data set [3] (in acetone); 0.96 mol/kg in data set [3] (in γ-BL (γ-butyrolactone)). The “Electrochemical window (upper limit of stability, Li/Li+=0)” value in data set [5] was “ca. 5 V”.

In data set [6], `O=C1CC(=O)O[B-]2(O1)OC(=O)CC(=O)O2.[Li+]` [LMB, Lithium-bis(malonato)borate] gave a Degree of hydrolysis of 5%. For the same molecule, the entries for the “Cond. (conductivity)” value in data set [1] (in THF) and in data set [1] (in γ-BL) were 0.01 mS/cm and 1.65 mS/cm, respectively. The Solubility in data set [7] was 80 mM; in data set [3] (setting [9]) it was 0.003 mol/kg; in data set [3] (in PC (propylene carbonate)) it was 0.02 mol/kg; in data set [3] (in THF (tetrahydrofuran)) it was 0.09 mol/kg; in data set [3] (in acetone), 0.03 mol/kg; in data set [3] (in γ-BL (γ-butyrolactone)), 0.13 mol/kg. Further, the “Electrochemical stability / electrochemical window up to” value in data set [8] is “up to 5 V”.

Turning to `O=C1CC(=O)O[B-]2(O1)OC(=O)C(=O)O2.[Li+]` [LOMB, Lithium-(malonato,oxalato)borate], the Degree of hydrolysis in data set [6] worked out at 15%. The “Cond. (conductivity)” value in data set [1] (in THF) amounted to 0.41 mS/cm; in data set [1] (in γ-BL), 3.59 mS/cm. The Solubility in data set [3] (setting [9]) stood at 0.20 mol/kg; in data set [3] (in PC (propylene carbonate)), 0.17 mol/kg; in data set [3] (in THF (tetrahydrofuran)), 0.17 mol/kg; in data set [3] (in acetone), 0.43 mol/kg; in data set [3] (in γ-BL (γ-butyrolactone)) it was 0.62 mol/kg.

Regarding `O=C1O[B-]2(OC1=O)OC(=O)C(=O)O2.[Li+]` [LOB, Lithium-bis(oxalato)borate], the Degree of hydrolysis in data set [6] was greater than 50%. Also, the “Cond. (conductivity)” value in data set [1] (in γ-BL) is given as 6.96 mS/cm. Further, the Solubility amounted to 1.30 mol/kg in data set [3] (setting [9]); 0.88 mol/kg in data set [3] (in PC (propylene carbonate)); 1.90 mol/kg in data set [3] (in THF (tetrahydrofuran)); 1.82 mol/kg in data set [3] (in acetone); 1.55 mol/kg in data set [3] (in γ-BL (γ-butyrolactone)). For the same molecule, the “Electrochemical stability / electrochemical window up to” value in data set [8] was “about 4.5 V”.
